Experimental data taken from US8063022B1, “Methods for preventing formation of inhibitory antibodies in the setting of gene therapy” (priority 1999, dated 2011).
Like-named read-outs stand apart in the source and are kept apart here.

How the values were obtained:
[1] = system: Hemophilia B knockout mice; format: in vivo, mouse; settings: for Bethesda titer of AAV-F.IX treated mice: values of individual mice; for correction of the aPTT (in words): hemophilia B mice injected with AAV-mF.IX, with or without immunomodulation
Procedure: A cohort of six mice were injected intramuscularly with an adeno-associated virus (AAV) vector encoding the murine F.IX transgene (total dose 1×10^11 vector genomes/mouse). Mice were bled at monthly intervals via tail vein transection, and clotting times of plasma were measured by aPTT assay. […] Two other cohorts of mice received immunomodulation around the time of vector administration in an effort to suppress inhibitor formation. One cohort (n=4) received anti-CD40L antibody at a total dose of 0.4 mg per mouse given in four divided doses (0.1 mg at days -3, 0, 3, 6) while the other cohort received cyclophosphamide (CYP, n=4) at doses of 50 mg/kg per mouse biweekly at four time points.
(§1) Hemophilia B knockout mice were injected intramuscularly with AAV mF.IX (1×10^11) at day 0, without or with immunomodulation therapy. The mice were bled at monthly time points in citrate. The assays which were performed included a clotting based-apTT (measure of correction of hemostatic defect) assay and Bethesda titer (1 BU defined as 50% residual FIX in a 2 hour 50:50 mix). In addition, antibody assays, Western blot analysis and ELISA assays were performed. The immunomodulatory strategies used to address formation of antibodies to the transgene product were as follows: […]

[2] = system: Hemophilia B knockout mice; assay: Western blot for antibody to murine F.IX in hemophilic mice injected with AAV-mF.IX; format: in vivo, mouse; settings: up to five months of observation
Procedure: as §1

In the case of O=P1(N(CCCl)CCCl)NCCCO1 (centres unmarked) [CYP, cyclophosphamide], the “Bethesda titer of AAV-F.IX treated mice” value ([1]; 1 month after vector) is reported as 0/0/0, the “Bethesda titer of AAV-F.IX treated mice” value ([1]; 2 months after vector) is reported as 0/0/0 and the “period over which aPTT correction was maintained” value ([1]; after vector injection) is reported as “greater than ten months”. For the same compound, the aPTT ([1]; all mice at one month after vector, normal 22-39 s) was 28.9 to 30.9 s, the “animals with no evidence of inhibitor antibody formation” value ([1]; four doses at two week intervals, at least five months after vector) was 3/3 and the “correction of the aPTT (in words)” value [1] was “nearly complete correction”. For the same compound, the “correction of the aPTT (in words)” value ([1]; listed as cyclophosphamide) was “sustained correction of the aPTT” and the “antibody to murine F.IX on Western blot (in words)” value [2] was “did not develop antibodies”.
